Measured values published in the supplement of paper PMC11061612.

Experiments:
[1] = compound: CC1=CN2[C@@H](C1)C=NC3=CC(=C(C=C3C2=O)OC)OCCCCCOC4=C(C=C5C(=C4)N=C[C@@H]6CC(=CN6C5=O)C)OC [SG3199]; settings: max 0.001 µM
In short: (§1)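 Following 24 hours at 37°C and 5% CO2, cancer cell lines in 1536-well plates with 7.5 μl DMEM/F12 or RPMI and 10% FBS were dosed for 72 hours, final DMSO typically being 0.2%. CellTiter-Glo 2.0 luminescence, scaled between blank-well and DMSO-well means, gave the viability readout. Dose responses were fitted to a two-parameter logistic curve with a non-linear mixed effects model, and the single-agent IC50 was derived from this fit.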

[2] = compound: CS(=O)(=O)CCNCc1ccc(-c2ccc3ncnc(Nc4ccc(OCc5cccc(F)c5)c(Cl)c4)c3c2)o1 [Lapatinib]; settings: max 10 µM
In short: as §1

[3] = compound: CC(=O)Nc1cccc(-n2c(=O)n(C3CC3)c(=O)c3c(Nc4ccc(I)cc4F)n(C)c(=O)c(C)c32)c1 [Trametinib]; settings: max 1 µM
In short: as §1

[4] = compound: CC1=C(C(=CC=C1)Cl)NC(=O)C2=CN=C(S2)NC3=CC(=NC(=N3)C)N4CCN(CC4)CCO [Dasatinib]; settings: max 2 µM
In short: as §1

[5] = compound: C[C@@H](Nc1cc(F)cc(F)c1)c1cc(C(=O)N(C)C)cc2c(=O)cc(N3CCOCC3)oc12 [AZD8186]; settings: max 3 µM
In short: as §1

[6] = compound: COc1cc2ncnc(Nc3ccc(F)c(Cl)c3)c2cc1OCCCN1CCOCC1 [Gefitinib]; settings: max 10 µM
In short: as §1

[7] = compound: CC1(C)CCC(CN2CCN(c3ccc(C(=O)NS(=O)(=O)c4ccc(NCC5CCOCC5)c([N+](=O)[O-])c4)c(Oc4cnc5[nH]ccc5c4)c3)CC2)=C(c2ccc(Cl)cc2)C1 [Venetoclax]; settings: max 1 µM
In short: as §1

[8] = compound: COc1cccc(OCCCN)c1-c1cc(Nc2cnc(C#N)cn2)n[nH]1 [Prexasertib]; settings: max 1 µM
In short: as §1

[9] = compound: C=CCn1c(=O)c2cnc(Nc3ccc(N4CCN(C)CC4)cc3)nc2n1-c1cccc(C(C)(C)O)n1 [AZD1775]; settings: max 3 µM
In short: as §1

[10] = compound: C[C@@H]1COCCN1C2=NC(=NC(=C2)C3(CC3)[S@](=N)(=O)C)C4=C5C=CNC5=NC=C4 [AZD6738]; settings: max 10 µM
In short: as §1

[11] = compound: C[C@@H](Oc1cc(-c2cnn(C3CCNCC3)c2)cnc1N)c1c(Cl)ccc(F)c1Cl [Crizotinib]; settings: max 10 µM
In short: as §1

[12] = compound: Cc1nc(-c2cn3c(n2)-c2ccc(-c4cnn(C(C)(C)C(N)=O)c4)cc2OCC3)n(C(C)C)n1 [Taselisib]; settings: max 10 µM
In short: as §1

[13] = compound: CCc1c2c(nc3ccc(O)cc13)-c1cc3c(c(=O)n1C2)COC(=O)[C@]3(O)CC [SN-38]; settings: max 0.3 µM
In short: as §1

[14] = compound: CC(C)n1c(=O)n(C)c2cnc3cc(F)c(-c4ccc(OCCCN5CCCCC5)nc4)cc3c21 [AZD1390]; settings: max 0.3 µM
In short: as §1

[15] = compound: Cc1c2c(nn1C)CSCc1cc(n(C)n1)CSc1cc(c3ccccc3c1)OCCCc1c(C(=O)O)n(C)c3c-2c(Cl)ccc13 [AZD5991]; settings: max 1 µM
In short: as §1

[16] = compound: COc1cc(Nc2ncc3c(n2)-c2ccc(Cl)cc2C(c2c(F)cccc2OC)=NC3)ccc1C(=O)O [Alisertib]; settings: max 10 µM
In short: as §1

[17] = compound: Cc1cc2ncnn2cc1Nc1ncc2c(n1)n(C1CCOCC1)c(=O)n2C [AZD7648]; settings: max 10 µM
In short: as §1

[18] = compound: COc1cccc2c1C(=O)c1c(O)c3c(c(O)c1C2=O)C[C@@](O)(C(=O)CO)C[C@@H]3O[C@H]1C[C@H](N)[C@H](O)[C@H](C)O1 [Doxorubicin]; settings: max 1 µM
In short: as §1

[19] = compound: Cn1cnc2c(F)c(Nc3ccc(Br)cc3Cl)c(C(=O)NOCCO)cc21 [Selumetinib]; settings: max 10 µM
In short: as §1

[20] = compound: CCN(CCO)CCCOc1ccc2c(Nc3cc(CC(=O)Nc4cccc(F)c4)[nH]n3)ncnc2c1 [AZD2811]; settings: max 1 µM
In short: as §1

[21] = compound: C1CN(CCC1(C(=O)N[C@@H](CCO)C2=CC=C(C=C2)Cl)N)C3=NC=NC4=C3C=CN4 [Capivasertib]
In short: as §1

[22] = compound: O=C(c1cc(Cc2n[nH]c(=O)c3ccccc23)ccc1F)N1CCN(C(=O)C2CC2)CC1 [Olaparib]
In short: as §1

[23] = compound: COc1nnc2ccc(N3CCC(c4ccc(OCCN5CCN(C)C(=O)[C@H]5C)cc4)CC3)nn12 [AZD5153]; settings: max 1 µM
In short: as §1

[24] = compound: CN(CC[C@H](CSC1=CC=CC=C1)NC2=C(C=C(C=C2)S(=O)(=O)NC(=O)C3=CC=C(C=C3)N4CCC(CC4)[C@H](C5=CC=CC=C5C6=CC=C(C=C6)Cl)O)S(=O)(=O)C(F)(F)F)CCO [AZD4320]; settings: max 1 µM
In short: as §1

[25] = compound: CN(C)CCCOc1ccc(-c2ccc3ncc4c(c3c2)n(C2CCOCC2)c(=O)n4C)cn1 [AZD0156]; settings: max 3 µM
In short: as §1

[26] = compound: C[C@@H](c1ccc2nccn2c1)n1nnc2ncc(-c3cnn(C)c3)nc21 [Savolitinib]; settings: max 1 µM
In short: as §1

[27] = compound: CC(=O)c1c(C)c2cnc(Nc3ccc(N4CCNCC4)cn3)nc2n(C2CCCC2)c1=O [Palbociclib]; settings: max 10 µM
In short: as §1

Cell Line	IC50, cell viability 72 h [1]	IC50, cell viability 72 h [2]	IC50, cell viability 72 h [3]	IC50, cell viability 72 h [4]	IC50, cell viability 72 h [5]	IC50, cell viability 72 h [6]	IC50, cell viability 72 h [7]	IC50, cell viability 72 h [8]	IC50, cell viability 72 h [9]	IC50, cell viability 72 h [10]	IC50, cell viability 72 h [11]	IC50, cell viability 72 h [12]	IC50, cell viability 72 h [13]	IC50, cell viability 72 h [14]	IC50, cell viability 72 h [15]	IC50, cell viability 72 h [16]	IC50, cell viability 72 h [17]	IC50, cell viability 72 h [18]	IC50, cell viability 72 h [19]	IC50, cell viability 72 h [20]	IC50, cell viability 72 h ([21]; max 10 µM)	IC50, cell viability 72 h ([22]; max 10 µM)	IC50, cell viability 72 h [23]	IC50, cell viability 72 h [24]	IC50, cell viability 72 h [25]	IC50, cell viability 72 h [26]	IC50, cell viability 72 h [27]	IC50, cell viability 72 h ([21]; max 3 µM)	IC50, cell viability 72 h ([22]; max 3 µM)
697 (B-Lymphoblastic Leukemia)	> 1 nM	6950 nM	662 nM	677 nM	> 3000 nM	> 10000 nM	14.3 nM	4.5 nM	149 nM	336 nM	1100 nM	3940 nM	3.34 nM	> 300 nM	48.9 nM	33.3 nM	9410 nM	17.3 nM	> 10000 nM	14.6 nM	3240 nM	1410 nM	14.2 nM	6.75 nM	2070 nM	> 1000 nM	263 nM	–	–
BB49-HNC (Head and Neck Carcinoma)	–	–	–	–	–	–	–	–	309 nM	–	–	–	–	–	–	–	–	–	–	–	–	–	–	–	> 3000 nM	–	–	1990 nM	> 3000 nM
C3A (Hepatocellular Carcinoma)	> 1 nM	> 10000 nM	657 nM	> 2000 nM	> 3000 nM	> 10000 nM	> 1000 nM	524 nM	2480 nM	> 10000 nM	> 10000 nM	> 10000 nM	143 nM	> 300 nM	> 1000 nM	> 10000 nM	> 10000 nM	> 1000 nM	7960 nM	> 1000 nM	> 10000 nM	> 10000 nM	> 1000 nM	> 1000 nM	> 3000 nM	> 1000 nM	> 10000 nM	–	–
CAL-78 (Chondrosarcoma)	> 1 nM	> 10000 nM	> 1000 nM	> 2000 nM	> 3000 nM	> 10000 nM	> 1000 nM	226 nM	898 nM	> 10000 nM	> 10000 nM	> 10000 nM	54.1 nM	> 300 nM	261 nM	1780 nM	> 10000 nM	> 1000 nM	> 10000 nM	> 1000 nM	> 10000 nM	> 10000 nM	> 1000 nM	> 1000 nM	> 3000 nM	> 1000 nM	> 10000 nM	–	–
CFPAC-1 (Pancreatic Carcinoma)	> 1 nM	> 10000 nM	> 1000 nM	> 2000 nM	> 3000 nM	> 10000 nM	> 1000 nM	108 nM	1440 nM	> 10000 nM	> 10000 nM	5770 nM	26.1 nM	> 300 nM	> 1000 nM	> 10000 nM	> 10000 nM	> 1000 nM	> 10000 nM	> 1000 nM	> 10000 nM	> 10000 nM	> 1000 nM	> 1000 nM	> 3000 nM	> 1000 nM	> 10000 nM	–	–
COR-L23 (Non-Small Cell Lung Carcinoma)	> 1 nM	> 10000 nM	> 1000 nM	> 2000 nM	> 3000 nM	> 10000 nM	> 1000 nM	216 nM	591 nM	> 10000 nM	> 10000 nM	5740 nM	131 nM	> 300 nM	> 1000 nM	> 10000 nM	> 10000 nM	> 1000 nM	> 10000 nM	> 1000 nM	> 10000 nM	> 10000 nM	> 1000 nM	> 1000 nM	> 3000 nM	> 1000 nM	> 10000 nM	–	–
CTV-1 (T-Lymphoblastic Leukemia)	> 1 nM	> 10000 nM	> 1000 nM	< 2 nM	> 3000 nM	4930 nM	> 1000 nM	7.28 nM	280 nM	3920 nM	371 nM	3170 nM	3.52 nM	> 300 nM	> 1000 nM	199 nM	> 10000 nM	45.6 nM	> 10000 nM	> 1000 nM	5880 nM	> 10000 nM	57.5 nM	> 1000 nM	> 3000 nM	> 1000 nM	1470 nM	–	–
DMS-273 (Small Cell Lung Carcinoma)	> 1 nM	7430 nM	> 1000 nM	> 2000 nM	1480 nM	> 10000 nM	> 1000 nM	32.4 nM	1170 nM	3450 nM	3930 nM	5580 nM	18.9 nM	> 300 nM	201 nM	1060 nM	> 10000 nM	458 nM	> 10000 nM	114 nM	916 nM	> 10000 nM	117 nM	> 1000 nM	> 3000 nM	> 1000 nM	> 10000 nM	–	–
EM-2 (Chronic Myelogenous Leukemia)	> 1 nM	> 10000 nM	350 nM	2.28 nM	> 3000 nM	> 10000 nM	> 1000 nM	5.51 nM	295 nM	1630 nM	859 nM	> 10000 nM	5.12 nM	> 300 nM	> 1000 nM	1060 nM	> 10000 nM	104 nM	5550 nM	21.9 nM	> 10000 nM	> 10000 nM	61.6 nM	34.2 nM	> 3000 nM	> 1000 nM	> 10000 nM	–	–
